Experimental data published in the supplement of paper PMC11451515.

How the values were obtained:
Test in all cases: AUC of viability dose-response curve (% viability x log10 dose units); higher = less sensitive
Details in all cases: 48 h
[1] = test system: NOMO1
How it was run: (§1)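 Over 48 h at 37°C, leukemia cells in 1536-well plates (500 or 1000 cells/well), adapted to each medium, received library compounds in DMSO at 11 threefold doses from 47 μM to 0.79 nM. CellTiter-Glo One luminescence, normalised per plate to DMSO and cell-free wells, was fitted by a four-parameter log-logistic function of log10 dose. The area under the curve was then integrated by trapezoidal rule, after scaling curves above full viability and removing those that failed quality control.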

[2] = test system: P12-Ichikawa
How it was run: as §1

[3] = test system: SEM cells
How it was run: as §1

[4] = RPMI 5 mM glucose + 10% dialyzed FBS

Row | SMILES | AUC of viability dose-response curve ([1]; HPLM + 10% dialyzed FBS) | AUC of viability dose-response curve ([1]; RPMI 5 mM glucose + 10% FBS) | AUC of viability dose-response curve [1, 4] | AUC of viability dose-response curve ([2]; HPLM + 10% dialyzed FBS) | AUC of viability dose-response curve ([2]; RPMI 5 mM glucose + 10% FBS) | AUC of viability dose-response curve [2, 4] | AUC of viability dose-response curve ([3]; HPLM + 10% dialyzed FBS) | AUC of viability dose-response curve ([3]; RPMI 5 mM glucose + 10% FBS) | AUC of viability dose-response curve [3, 4]
1 | Nc1cc(C(F)(F)F)c(-c2cc(N3CCOCC3)nc(N3CCOCC3)n2)cn1 | 317 | 340 | 334 | 328 | 334 | 329 | 307 | 283 | 299
2 | CC/1=C(/C(CC(=O)N1)C2=CC=C(C=C2)C(F)(F)F)C(=O)NC3=C(F)C=C4[NH]N=CC4=C3 (stereo not drawn) | 422 | 389 | 415 | 442 | 450 | 448 | 405 | 418 | 411
3 | Oc1cccc(-c2nc(N3CCOCC3)c3oc4ncccc4c3n2)c1 | 464 | 466 | 459 | 449 | 401 | 430 | 337 | 302 | 312
4 | C[C@]12CC[C@H]3[C@@H](CCC/4=C/C(=O)CC[C@]34C)[C@@H]1CC[C@@H]2O | 463 | 460 | 462 | 468 | 467 | 470 | 467 | 450 | 444
5 | C[C@]12CC[C@@H]3c4ccc(O)cc4CC[C@H]3[C@@H]1C[C@@H](O)[C@@H]2O | 436 | 463 | 447 | 466 | 468 | 466 | 468 | 419 | 454
6 | Cc1cnc(C(=O)O)c[n+]1[O-] | 400 | 454 | 447 | 460 | 468 | 441 | 450 | 416 | 475
7 | CN1CCCC(CC1)N2\N=C(CC3=CC=C(Cl)C=C3)/C4=C(C=CC=C4)C2=O (stereo not drawn) | 440 | 457 | 461 | 455 | 466 | 461 | 468 | 394 | 464
8 | Cc1ccc([S+](=O)([O-])Nc2nc3ccccc3nc2Nc2ccc3nsnc3c2)cc1 | 361 | 360 | 365 | 422 | 405 | 438 | 410 | 440 | 409
9 | CCCCCCCCCC(=O)N[C@@H](Cc1c[nH]c2ccccc12)C(=O)N[C@H](CC(N)=O)C(=O)N[C@@H](CC(=O)O)C(=O)N[C@@H]1C(=O)NCC(=O)N[C@@H](CCCN)C(=O)N[C@@H](CC(=O)O)C(=O)N[C@H](C)C(=O)N[C@@H](CC(=O)O)C(=O)NCC(=O)N[C@H](CO)C(=O)N[C@@H]([C@@H](C)CC(=O)O)C(=O)N[C@@H](CC(=O)c2ccccc2N)C(=O)O[C@@H]1C | 459 | 466 | 469 | 459 | 454 | 460 | 458 | 455 | 469
10 | CCCCC(C=O)NC(=O)C(CC(C)C)NC(=O)OCc1ccccc1 (stereo not drawn) | 409 | 410 | 424 | 422 | 393 | 377 | 430 | 439 | 393
11 | CC[C@]12\C=C/CN3CC[C@]4([C@@H](N(C)C5=CC(=C(C=C45)[C@]6(C[C@H]7C[C@H](CN(C7)CC8=C6[NH]C9=C8C=CC=C9)C(C)(F)F)C(=O)OC)OC)[C@](O)([C@@H]1OC(C)=O)C(=O)OC)[C@H]23 | 256 | 221 | 250 | 189 | 176 | 212 | 215 | 179 | 196
12 | NC(=O)c1cccc2cn(-c3ccc([C@@H]4CCCNC4)cc3)nc12 | 468 | 456 | 470 | 453 | 441 | 458 | 438 | 448 | 446
13 | CO/C1=C/C(C)=C\[C@@H](C)[C@@H](O)[C@@H](C)C/C(C)=C\C=C/[C@H](OC)[C@@H]([C@@H](C)[C@@H](O)[C@H](C)[C@@]2(O)C[C@@H](O)[C@H](C)[C@@H](C(C)C)O2)OC1=O | 208 | 229 | 218 | 291 | 263 | 225 | 213 | 211 | 206
14 | CC(C)c1ccc(Cn2ccc3c4c(N)nc(NC5CC5)nc4ccc32)cc1 | 339 | 409 | 384 | 343 | 392 | 368 | 343 | 383 | 390
15 | O=C1Nc2ccc(I)cc2/C1=C/c1cc(Br)c(O)c(Br)c1 | 469 | 457 | 448 | 469 | 468 | 458 | 466 | 457 | 451
16 | COc1ccc2[nH]c([S+]([O-])Cc3ncc(C)c(OC)c3C)nc2c1 (stereo not drawn) | 411 | 434 | 418 | 427 | 398 | 363 | 354 | 411 | 392

Row | SMILES | AUC of viability dose-response curve ([1]; HPLM + 10% dialyzed FBS) | AUC of viability dose-response curve ([1]; RPMI 5 mM glucose + 10% FBS) | AUC of viability dose-response curve [1, 4] | AUC of viability dose-response curve ([2]; HPLM + 10% dialyzed FBS) | AUC of viability dose-response curve ([2]; RPMI 5 mM glucose + 10% FBS) | AUC of viability dose-response curve [2, 4] | AUC of viability dose-response curve ([3]; HPLM + 10% dialyzed FBS) | AUC of viability dose-response curve ([3]; RPMI 5 mM glucose + 10% FBS) | AUC of viability dose-response curve [3, 4]
17 | C[S+](=O)([O-])c1cccc(CNc2nc(Nc3ccc4c(c3)CCC(=O)N4)ncc2C(F)(F)F)c1 | 436 | 446 | 454 | 450 | 444 | 451 | 331 | 367 | 355
18 | Cc1cc(Nc2nc(N[C@@H](C)c3ccc(F)cc3)c(C#N)cc2F)n[nH]1 | 414 | 362 | 394 | 396 | 399 | 393 | 367 | 368 | 364
19 | C=CCc1cccc(/C=N/NC(=O)CN2CCN(Cc3ccccc3)CC2)c1O | 419 | 448 | 433 | 420 | 424 | 417 | 399 | 411 | 378
20 | Nc1cccc2c1CN([C@H]1CCC(=O)NC1=O)C2=O | 462 | 428 | 466 | 451 | 448 | 449 | 427 | 390 | 450
21 | CC1(N2CCC(n3c([C@@H]4CCCNC4)nc4ccccc43)CC2)CCCCCCC1 | 420 | 460 | 433 | 456 | 458 | 456 | 430 | 467 | 471
22 | CNCc1ccc(-c2[nH]c3cc(F)cc4c3c2CCNC4=O)cc1 | 474 | 466 | 461 | 470 | 474 | 467 | 439 | 434 | 460
23 | CC[C@H](C)C(=O)O[C@H]1C[C@H](O)\C=C2\C=C/[C@H](C)[C@H](CC[C@@H](O)C[C@@H](O)CC(O)=O)[C@@H]12 | 441 | 457 | 462 | 447 | 460 | 464 | 458 | 464 | 470
24 | COC(=O)C1C2CC3c4[nH]c5cc(OC)ccc5c4CCN3CC2CC(OC(=O)c2cc(OC)c(OC)c(OC)c2)C1OC (stereo not drawn) | 465 | 454 | 468 | 467 | 471 | 445 | 462 | 459 | 456
25 | CN[C@@H]1Cc2cccc3[nH]c(=O)n(c23)C1 | 455 | 450 | 458 | 449 | 445 | 456 | 442 | 454 | 452
26 | CN[C@@H](C)C(=O)N[C@H]1CN(C(=O)CC(C)C)CC[C@H]2CC[C@@H](C(=O)NC(c3ccccc3)c3ccccc3)N2C1=O | 317 | 336 | 361 | 411 | 406 | 424 | 431 | 406 | 423
27 | CC(O)(C#Cc1ccc2c(c1)N(c1nc(N)ncc1Cl)CC2)c1nccs1 (stereo not drawn) | 455 | 467 | 468 | 477 | 468 | 464 | 469 | 430 | 465
28 | O=C(O)/C=C/c1ccc(O)c(O)c1 | 454 | 453 | 462 | 449 | 447 | 443 | 447 | 423 | 428
29 | COc1ccc(C2Sc3ccccc3N(CCN(C)C)C(=O)C2OC(C)=O)cc1 (stereo not drawn) | 469 | 463 | 460 | 467 | 468 | 445 | 473 | 469 | 474
30 | O=C(O)CCn1c2c(c3ccccc31)C[C@H](N[S+](=O)([O-])c1ccc(F)cc1)CC2 | 458 | 457 | 448 | 465 | 468 | 453 | 471 | 449 | 472
31 | CN(C)CC[C@H](c1ccc(Cl)cc1)c1ccccn1 | 378 | 382 | 412 | 413 | 388 | 379 | 376 | 438 | 414
32 | COc1cc([C@H]2Oc3cc([C@H]4Oc5cc(O)cc(O)c5C(=O)[C@@H]4O)ccc3O[C@@H]2CO)ccc1O | 470 | 465 | 452 | 464 | 446 | 456 | 455 | 473 | 467
